Measurements as given in US10040838B2, “CRHR2 peptide agonists and uses thereof” (JANSSEN PHARMACEUTICA NV, priority 2008, dated 2018).
No end group written: not given here.

System: isolated rat aortic rings
Test: Vascular smooth muscle relaxation, isolated rat aortic rings pre-contracted with phenylephrine
From the text: The ability of h-SCP (SEQ ID NO:1) to relax vascular smooth muscle was examined in isolated, rat aortic rings pre-contracted with phenylephrine (PE) (see FIG. 6). […] The responses caused by h-SCP (SEQ ID NO:1) were inhibited by anti-sauvagine-30 (SEQ ID NO:118).

In the case of “TKFTLSLDVPTNIMNLLFNIAKAKNLRAQAAANAHLMAQI-NH2 [SEQ ID NO: 1, TKFTLSLDVPTNIMNLLFNIAKAKNLRAQAAANAHLMAQI-NH2, reference compound]”, the pA50 relaxation (rat aortic rings pre-contracted with phenylephrine) is reported as 6.05±0.12 and the “fold less potent than h-UCN2” value (relaxation of rat aortic rings) is reported as 10 fold.
